Experimental data published in patent US20170368082A1, “FORMULATIONS OF BRINCIDOFOVIR” (priority 2016, published 2017).

Assay: Tissue distribution by quantitative whole-body autoradiography (QWBA)
Format: in vivo, male Sprague Dawley and Long-Evans rats
Conditions: for AUCall Ratio (PO/IV) / Cmax Ratio (PO/IV): 15 mg/kg, Group 7 vs Group 4
Procedure: The study utilized 4 groups of male SD rats (albino), and 3 groups of male LE rats (pigmented); a total of 39 rats. All animals were obtained from Hilltop Lab Animals, Inc. (Scottdale, Pa.). […] Rats in Group 5 were administered a single 2-h IV infusion of [^14C]brincidofovir at a target dose of 2 mg/kg. […] Three dosing formulations (one for high dose IV, one for low dose IV, and one for PO dose) were prepared at QPS on the day of dosing. The IV formulation for Groups 1, 2, 3, and 4 contained a vehicle of 10 mM sodium phosphate buffer in 5% dextrose solution at pH 8.0(±0.1).
Each animal, at their respective termination time points, was euthanized for QWBA analysis immediately after blood collection. One rat per time point per Group was euthanized as listed below.
The blood samples were maintained on wet ice (approximately 4° C.) and then centrifuged to obtain plasma within 1 h of the blood collection time. Centrifuge settings were recorded in the study notebook. Duplicate aliquots of plasma (0.050 mL) were analyzed for radioactivity using direct counting by LSC, and residual plasma was stored at approximately −70° C. and was saved for possible future analysis under a separate study protocol. Residual red blood cells were discarded as radioactive waste.
The pinna, distal limbs, hair, and tail were removed from each frozen carcass and each frozen carcass was embedded in an aqueous suspension of approximately 2% (w/v) carboxymethylcellulose and frozen into a block. The blocks were stored at approximately −20° C. prior to sectioning. Each blocked carcass was mounted on the object stage of a cryomicrotome (Leica CM3600 Cryomacrocut, Nussloch, Germany and Vibratome 9800, St. Louis, Mo.) maintained at approximately −20° C. and internal standards (3), which were plasma fortified with [^14C]-glucose at one concentration (approximately 0.05 μCi/mL), were placed into the frozen blocks, prior to sectioning, and were used for section thickness quality control. A number of whole-body sections (approximately 40 μm thick) were taken in the sagittal plane at various levels of interest using a whole-body cryomicrotome set at −20° C. Sagittal sections (20-50 μm thick) of frozen carcasses were exposed to phosphor imaging plates. Regions of images in tissues were converted to concentrations using standards. All of the major tissues, organs, and biological fluids were represented.
Tissue concentration data was determined for the following tissues and/or contents: adipose (brown and white), adrenal gland, bile (in duct), blood (cardiac), bone, bone marrow, brain (cerebrum, cerebellum, medulla), cecum (and contents), large intestine (and contents), epididymis, esophagus, eye (uvea and lens), Harderian gland, heart, kidney (cortex and medulla), liver, lung, lymph node, pancreas, pituitary gland, prostate gland, salivary gland, seminal vesicles, skeletal muscle, skin (pigmented and non-pigmented), small intestine (and contents), stomach (gastric mucosa and contents), spleen, spinal cord, testis, thymus, thyroid, and urinary bladder (and contents).
The imaging plate and sections were placed in light-tight exposure cassettes, in a copper-lined lead safe, for a 4-day exposure at room temperature. […] Quantification was performed by image densitometry using MCD image analysis software (v. 7.0, Interfocus Imaging Ltd) and a standard curve constructed from the integrated response [i.e., Molecular Dynamics Counts per square millimeter (MDC/mm^2)] and the nominal concentrations of the ^14C-calibration standards. The concentrations of radioactivity were expressed as the μg equivalents of [^14C]brincidofovir per gram sample (μg equiv/g). A lower limit of quantification (LLOQ) was applied to the data (See section 6.7.4).
Tissue concentrations that fell below the LLOQ were identified as being below the quantification limit (BQL). Tissue areas that were not visualized on autoradiographic images were identified as no sample (NS) and reported as BQL.

CCCCCCCCCCCCCCCCOCCCOP(=O)(O)CO[C@H](CO)Cn1ccc(N)nc1=O [[^14C] brincidofovir]
AUCall (Cecum, 2 h IV infusion 15 mg/kg, Group 4): 360.7580 μg equiv · h/g | Tissue Concentration (168 h) (Cecum, 2 h IV infusion 15 mg/kg, Group 4, LLOQ 0.036): 0.08 μg equiv/g | Tissue Concentration (168 h) (Cecum, PO 15 mg/kg, Group 7, LLOQ 0.034): 0.137 μg equiv/g | AUCall (Cecum, PO 15 mg/kg, Group 7): 174.4118 μg equiv · h/g | AUCall Ratio (PO/IV) (Epididymis): 0.33 | Cmax Ratio (PO/IV) (Epididymis): 0.16 | AUCall (Epididymis, 2 h IV infusion 15 mg/kg, Group 4): 95.0160 μg equiv · h/g | Tissue Concentration (168 h) (Epididymis, 2 h IV infusion 15 mg/kg, Group 4, LLOQ 0.036): 0.129 μg equiv/g | Tissue Concentration (168 h) (Epididymis, PO 15 mg/kg, Group 7, LLOQ 0.034): 0.042 μg equiv/g | AUCall (Epididymis, PO 15 mg/kg, Group 7): 31.1150 μg equiv · h/g | AUCall Ratio (PO/IV) (Esophagus): 0.38 | Cmax Ratio (PO/IV) (Esophagus): 1.89 | AUCall (Esophagus, 2 h IV infusion 15 mg/kg, Group 4): 73.1850 μg equiv · h/g | Tissue Concentration (168 h) (Esophagus, 2 h IV infusion 15 mg/kg, Group 4, LLOQ 0.036): 0.041 μg equiv/g | Tissue Concentration (168 h) (Esophagus, PO 15 mg/kg, Group 7, LLOQ 0.034): BQL | AUCall (Esophagus, PO 15 mg/kg, Group 7): 27.9015 μg equiv · h/g | AUCall (Eye (lens), 2 h IV infusion 15 mg/kg, Group 4): 0.1545 μg equiv · h/g | Tissue Concentration (168 h) (Eye (lens), 2 h IV infusion 15 mg/kg, Group 4, LLOQ 0.036): BQL | Tissue Concentration (168 h) (Eye (lens), PO 15 mg/kg, Group 7, LLOQ 0.034): BQL | AUCall Ratio (PO/IV) (Eye (uveal tract)): 0.32 | Cmax Ratio (PO/IV) (Eye (uveal tract)): 0.43 | AUCall (Eye (uveal tract), 2 h IV infusion 15 mg/kg, Group 4): 51.5575 μg equiv · h/g | Tissue Concentration (168 h) (Eye (uveal tract), 2 h IV infusion 15 mg/kg, Group 4, LLOQ 0.036): BQL | Tissue Concentration (168 h) (Eye (uveal tract), PO 15 mg/kg, Group 7, LLOQ 0.034): BQL | AUCall (Eye (uveal tract), PO 15 mg/kg, Group 7): 16.2765 μg equiv · h/g | AUCall Ratio (PO/IV) (Harderian Gland): 0.25 | Cmax Ratio (PO/IV) (Harderian Gland): 0.12 | AUCall (Harderian Gland, 2 h IV infusion 15 mg/kg, Group 4): 257.6905 μg equiv · h/g | Tissue Concentration (168 h) (Harderian Gland, 2 h IV infusion 15 mg/kg, Group 4, LLOQ 0.036): 0.403 μg equiv/g | Tissue Concentration (168 h) (Harderian Gland, PO 15 mg/kg, Group 7, LLOQ 0.034): 0.11 μg equiv/g | AUCall (Harderian Gland, PO 15 mg/kg, Group 7): 63.7645 μg equiv · h/g | AUCall Ratio (PO/IV) (Heart): 0.54 | Cmax Ratio (PO/IV) (Heart): 0.15 | AUCall (Heart, 2 h IV infusion 15 mg/kg, Group 4): 58.1205 μg equiv · h/g | Tissue Concentration (168 h) (Heart, 2 h IV infusion 15 mg/kg, Group 4, LLOQ 0.036): 0.062 μg equiv/g | Tissue Concentration (168 h) (Heart, PO 15 mg/kg, Group 7, LLOQ 0.034): 0.045 μg equiv/g | AUCall (Heart, PO 15 mg/kg, Group 7): 31.1603 μg equiv · h/g | AUCall Ratio (PO/IV) (Kidney Cortex): 0.42 | Cmax Ratio (PO/IV) (Kidney Cortex): 0.18 | AUCall (Kidney Cortex, 2 h IV infusion 15 mg/kg, Group 4): 1919.6850 μg equiv · h/g | Tissue Concentration (168 h) (Kidney Cortex, 2 h IV infusion 15 mg/kg, Group 4, LLOQ 0.036): 0.33 μg equiv/g | Tissue Concentration (168 h) (Kidney Cortex, PO 15 mg/kg, Group 7, LLOQ 0.034): 0.342 μg equiv/g | AUCall (Kidney Cortex, PO 15 mg/kg, Group 7): 804.4980 μg equiv · h/g | AUCall Ratio (PO/IV) (Kidney Medulla): 0.48 | Cmax Ratio (PO/IV) (Kidney Medulla): 0.34 | AUCall (Kidney Medulla, 2 h IV infusion 15 mg/kg, Group 4): 717.8445 μg equiv · h/g | Tissue Concentration (168 h) (Kidney Medulla, 2 h IV infusion 15 mg/kg, Group 4, LLOQ 0.036): 0.138 μg equiv/g | Tissue Concentration (168 h) (Kidney Medulla, PO 15 mg/kg, Group 7, LLOQ 0.034): 0.201 μg equiv/g | AUCall (Kidney Medulla, PO 15 mg/kg, Group 7): 342.0130 μg equiv · h/g | AUCall Ratio (PO/IV) (Large Intestine): 0.45 | Cmax Ratio (PO/IV) (Large Intestine): 0.61 | AUCall (Large Intestine, 2 h IV infusion 15 mg/kg, Group 4): 310.7965 μg equiv · h/g | Tissue Concentration (168 h) (Large Intestine, 2 h IV infusion 15 mg/kg, Group 4, LLOQ 0.036): 0.103 μg equiv/g | Tissue Concentration (168 h) (Large Intestine, PO 15 mg/kg, Group 7, LLOQ 0.034): 0.06 μg equiv/g | AUCall (Large Intestine, PO 15 mg/kg, Group 7): 140.3313 μg equiv · h/g | AUCall Ratio (PO/IV) (Liver): 0.66
